Reference: patent EP0403963A2, “Anthracycline derivatives, process for their preparation and their use as medicaments” (priority 1989, dated 1990)
Values after ≈ are worked out from the molar mass of the structure shown. Read-outs that look alike come from different tables or passages of the source.

How the values were obtained:
[1] = system: L1210 Leukämiezellen; experiment: Proliferation test (MTT), continuous incubation; type: cell-based, Maus; conditions: for IC50: Mus musculus, read-out: Zytotoxizität (Dauerinkubation) IC50
Experimental: Kontrollen bestehen aus Zellen, die lediglich mit frischem Medium inkubiert werden. Alle Bestimmungen werden als 4-fache Bestimmung durchgeführt. Nach 65 Stunden werden 50 ul MTT (3-(4,5-Dimethylthiazol-2-yl)-2,5-diphenyl-tetrazoliumbromid, 2,5 mg/mi in PBS) zugegeben. MTT wird durch lebende Zellen zu einem […], unlöslichen Formazan-Farbstoff reduziert. Nach einer weiteren 7-stündigen Inkubation wird das überstehende Medium vorsichtig abgesaugt. Der Formazan-Farbstoff wird durch Zugabe von jeweils 100 ul DMSO in die Vertiefungen der Mikrotiterplatte und vorsichtiges Schütteln gelöst. Die Extinktion der jeweiligen Lösung wird mit Hilfe eines Multiscan Photometers 340 CC, Fa. Flow, bei 492 nm gemessen.

[2] = Acute toxicity, intravenous injection; type: in vivo, Mäusen; conditions: mouse, in vivo, iv; i.v. on day 0, 3 and 6; survivors counted on day 20; 2 mice per dose; read-out: akute Toxizität LD50
Experimental: (§1) Zur Ermittlung der akuten Toxizität wurden BDFi-Mäusen am Tag 0, Tag 3 und Tag 6 unterschiedliche Dosen der Testsubstanz, gelöst in 0,4 ml physiologischer Kochsalzlösung, intravenös injiziert. Kontrollgruppen erhielten lediglich 0,4 ml physiologischer Kochsalzlösung. Pro Konzentration der Testsubstanz wurden 2 Mäuse verwendet. Am Tag 20 wurde die Zahl der überlebenden Mäuse und daraus die LD50 ermittelt. Die Toxizität der hier beschriebenen Verbindungen im Vergleich zu Adriamycin ist in Tabelle 1 zusammengefaßt.

[3] = Qualitative solubility of the isolated substance; type: physicochemical; conditions: solvents: Methanol, Ethylacetat, Chloroform, Wasser, Hexan
[4] = system: BDFi-Mäusen; experiment: Acute toxicity, intravenous injection; type: in vivo; conditions: i.v. on day 0, 3 and 6; survivors counted on day 20; 2 mice per dose; 28800 min
Experimental: as §1

[5] = L1210 cells, 72 h incubation, MTT readout at 492 nm

Molecule	IC50 [1, 5] [µg/mL]	LD50 at 480 h [2] [mg/kg]	Löslichkeit [3]	Zytotoxizität (Dauerinkubation) IC50 [1, 5]	akute Toxizität LD50 [4] [mg/kg]	IC50 ([1]; L1210, 72 h) [µg/mL]
CC[C@@]1(O[C@H]2C[C@H](N(C)C)[C@H](O)[C@H](C)O2)CCc2c(O)c3c(c(O)c2[C@H]1O[C@H]1C[C@H](N(C)C)[C@H](O)[C@H](C)O1)C(=O)c1cccc(O)c1C3=O [9-0,10-0-Bis (α-L-rhodosaminyl)-γ-rhodomycinon]	0.35 (≈ 0.511 µM)	25 to 50	leicht löslich in Methanol, Ethylacetat, Chloroform, unlöslich in Wasser und Hexan	–	–	–
Cytorhodin Z	–	–	leicht löslich in Methanol, Ethylacetat, Chloroform, unlöslich in Wasser und Hexan	0,33 µg/ml	10 to 25	–
COc1cccc2c1C(=O)c1c(O)c3c(c(O)c1C2=O)C[C@@](O)(C(=O)CO)C[C@@H]3O[C@H]1C[C@H](N)[C@H](O)[C@H](C)O1 [Adriamycin, reference compound]	–	10	–	–	–	0.02 to 0.03 (≈ 0.0368 to 0.0552 µM)
